From patent US20240027453A1, “METHOD FOR DETECTION AND QUANTITATIVE MONITORING OF INFECTIONS WITH HERPESVIRUSES” (The Trustees of Princeton University, priority 2020, published 2024)
Like-named read-outs stand apart in the source and are kept apart here.

Tested on: HCMV
Format: cell-based
Protocol: In example herpesvirus PRM assay methods shown herein, cell pellets were lysed in 2% SDS, 100 mM NaCl, 0.5 mM EDTA, 50 mM Tris, pH 8.2, and 50 μg of protein was reduced and alkylated with 25 mM TCEP and 50 mM CAM respectively for 20 min at 70° C. Proteins were then precipitated via methanol chloroform precipitation (Wessel & Flugg, Anal Biochem. 138(1):141-143, 1984), resuspended in 50 mM HEPES, pH 8.2 and digested overnight with trypsin (50:1 protein:enzyme w/w ratio). Digested peptides were desalted by SDB-RPS StageTip as previously described (Lum et al., Cell Syst., 7(6):[…], 2018; Greco et al., Methods Mol Biol 1410:39-63, 2016; Federspiel & Cristea, Methods Mol Biol., 1977:115-143, 2019).
Peptides (1.0 μg on column) were analyzed by LC-MS/MS using a Dionex Ultimate 3000 UHPLC coupled online to an EASYSpray ion source and a Q Exactive HF. Peptides were separated on an EASYSpray C18 column (75 μm×25 cm) heated to 50° C. using a linear gradient of 5% B to 32% B over 60 min at a flow rate of 250 nL/min and were ionized at 1.7 kv. Mobile phase A consisted of 0.1% FA in H2O and mobile phase B consisted of 0.1% FA, 2.9% H2O in ACN.
The PRM method was controlled by a peptide inclusion list with retention time windows of 6 min for selected precursor ions.
The PRM assay was developed and analyzed using the open-source software Skyline (Maclean et al., Bioinformatics 26(7):966-968, 2010). Summed area under the curve of 3-4 transitions per peptide was used for quantitation. Targeted peptides were normalized to host protein loading control peptides. Peptide values for each sample were scaled to the average of each peptide across all runs. The average of multiple peptides was used as the inferred value for the protein measurement when more than one peptide was quantified (Federspiel et al., PLoS Biol. 17(9):e3000437. Doi: 10.1371/journal.pbio.3000437). PRM quantitation data were graphed using the Python Seaborn and Matplotlib libraries.
MRC5 primary human fibroblasts (HFs) (ATCC CCL-171) were used as the model system for HSV-1 and HCMV infections and were cultured in complete growth medium (DMEM supplemented with 10% fetal bovine serum and 1% penicillin-streptomycin antibiotics) at 37° C. and 5% CO2. iSLK.219 cells harboring latent KSHV (a gift from Dr. Britt Glaunsinger, University of California, Berkeley) were grown in complete growth medium supplemented with 500 μg/ml hygromycin (ThermoFisher Scientific, 10687010) at 37° C. and 5% CO2. All cells were used for experiments within a maximum of 10 passages.
Wild type HSV-1 strain 17+ (a gift from Beate Sodeik, Hannover Medical School, Hannover, Germany) was propagated as previously described (Diner et al., 2015). Briefly, PO stocks were generated by electroporating pBAC-HSV-1 into U-2 OS cells. […] In a similar manner, wild type HCMV strain AD169 was produced from BAC electroporation into HFs and working stocks were propagated by infecting HFs at a low level. In both cases, cell-associated virus was released by sonication, combined with supernatant virus, then concentrated by ultracentrifugation (20,000 rpm, 2 hours, 4° C. with SW28 swinging bucket rotor [Beckman Coulter]) over a 10% ficoll (HSV-1) or 20% sorbitol (HCMV) cushion. Virus stock titers were determined by plaque assay for HSV-1 or tissue culture infectious dose (TCID50) for HCMV and infections were performed at a multiplicity of infection (MOI) of 3.
12 hours prior to virus infection or reactivation, cells were treated with either the small molecule drug or DMSO/PBS control at an equivalent volume. […] For infection cycles lasting longer than 24 hours, small molecule drugs were re-added to the cell culture medium every 24 hours. Upon collection, cells were rinsed with PBS, scraped into a microcentrifuge tube, pelleted by centrifugation, and rinsed again with PBS.

Nc1c(S(=O)(=O)c2ccccc2)c2nc3ccccc3nc2n1-c1ccc(F)cc1 [CAY10602]
HCMV UL122 (IE2) and UL123 (IE1) levels: decreases | levels of HCMV viral immediate early proteins: reduced | HCMV UL123 levels (24 HPI, […] CAY10602, 50 μM trans-Resveratrol): unchanged | HCMV UL26 levels (48 HPI, […] CAY10602, 50 μM trans-Resveratrol): decreased | HCMV viral protein production (by 48 HPI): global reduction | HCMV UL99 levels (by 72 HPI, […] CAY10602, 50 μM trans-Resveratrol): robustly decreased | global decrease in HCMV viral protein levels (by 120 HPI, […] CAY10602, 50 μM trans-Resveratrol): ~70% | CVC2 (P16726) protein level (timepoint 24, DE): 0.01787 | DBP (P17147) protein level (timepoint 24, DE): 0.1756 | HELI (P16736) protein level (timepoint 24, DE): 0.3389 | IR01 (P09710) protein level (timepoint 24, DE): 0.274 | NEC2 (P16791) protein level (timepoint 24, DE): 0.03969 | RIR1 (P16782) protein level (timepoint 24, DE): 0.09397 | TRM1 (P16724) protein level (timepoint 24, DE): 0.04087 | UL4 (P17146) protein level (timepoint 24, DE): 0.03736 | UL26 (P16762) protein level (timepoint 24, DE): 0.07273 | UL32 (P08318) protein level (timepoint 24, DE): 0.01952 | UL34 (P16812) protein level (timepoint 24, DE): 0.1137 | UL38 (P16779) protein level (timepoint 24, DE): 0.9755 | UL44 (P16790) protein level (timepoint 24, DE): 0.06474 | UL48 (P16785) protein level (timepoint 24, DE): 0.01175 | UL54 (P08546) protein level (timepoint 24, DE): 0.6089 | UL71 (P16823) protein level (timepoint 24, DE): 0.439 | UL78 (P16751) protein level (timepoint 24, DE): 0.9755 | UL84 (P16727) protein level (timepoint 24, DE): 0.1012 | UL95 (P16801) protein level (timepoint 24, DE): 0.07625 | UL96 (P16787) protein level (timepoint 24, DE): 0.387 | UL97 (P16788) protein level (timepoint 24, DE): 0.2812 | UL98 (P16789) protein level (timepoint 24, DE): 0.3005 | UL102 (P16827) protein level (timepoint 24, DE): 0.5343 | UL104 (P16735) protein level (timepoint 24, DE): 0.03903 | UL112/UL113 (P17151) protein level (timepoint 24, DE): 0.5236 | UL114 (P16769) protein level (timepoint 24, DE): 0.6704 | UL119/UL118 (P16739) protein level (timepoint 24, DE): 0.2198 | UL128 (P16837) protein level (timepoint 24, DE): 0.1113 | US8 (P09730) protein level (timepoint 24, DE): 1.057 | US9 (P09729) protein level (timepoint 24, DE): 0.627 | US12 (P09721) protein level (timepoint 24, DE): 1.672 | US13 (P09720) protein level (timepoint 24, DE): 0.6838 | US14 (P09719) protein level (timepoint 24, DE): 0.3957 | US18 (P69334) protein level (timepoint 24, DE): 0.5335 | US22 (P09722) protein level (timepoint 24, DE): 0.3966 | US23 (P09701) protein level (timepoint 24, DE): 0.6776 | US24 (P09700) protein level (timepoint 24, DE): 0.62 | US34 (P09709) protein level (timepoint 24, DE): 0.7981 | gB (P06473) protein level (timepoint 24, DE): 0.1137 | IRS1 (P09715) protein level (timepoint 24, IE): 0.3939 | TRS1 (P09695) protein level (timepoint 24, IE): 0.2642 | UL13 (P16755) protein level (timepoint 24, IE): 2.055 | UL36 (P16767) protein level (timepoint 24, IE): 1.41 | UL37 (P16778) protein level (timepoint 24, IE): 1.032 | UL122 (P19893) protein level (timepoint 24, IE): 0.05997 | UL123 (P13202) protein level (timepoint 24, IE): 0.9831 | CVC1 (P16799) protein level (timepoint 24, L): 0.06119 | IR11 (P16809) protein level (timepoint 24, L): 0.1044 | MCP (P16729) protein level (timepoint 24, L): 0.004968 | SCP (Q7M6N6) protein level (timepoint 24, L): 0.004248 | TRM2 (P16792) protein level (timepoint 24, L): 0.01981 | UL22A (P16845) protein level (timepoint 24, L): 0.04382 | UL25 (P16761) protein level (timepoint 24, L): 0.03889 | UL29 (P16764) protein level (timepoint 24, L): 0.8336 | UL31 (P16848) protein level (timepoint 24, L): 0.3279 | UL43 (P16781) protein level (timepoint 24, L): 0.06088 | UL52 (P16793) protein level (timepoint 24, L): 0.01567 | UL80 (P16753) protein level (timepoint 24, L): 0.0363 | UL82 (P06726) protein level (timepoint 24, L): 0.1843 | UL88 (P16731) protein level (timepoint 24, L): 0.03831 | UL94 (P16800) protein level (timepoint 24, L): 0.08626 | UL99 (P13200) protein level (timepoint 24, L): 0.0296 | UL103 (P16734) protein level (timepoint 24, L): 0.3578 | UL117 (P16770) protein level (timepoint 24, L): 0.4362 | gH (P12824) protein level (timepoint 24, L): 0.04925 | gL (P16832) protein level (timepoint 24, L): 0.03727 | gM (P16733) protein level (timepoint 24, L): 0.03485 | gN (P16795) protein level (timepoint 24, L): 0.1564 | IR12 (P16810) protein level (timepoint 24, LL): 0.06811 | TRX1 (P16783) protein level (timepoint 24, LL): 0.0077 | TRX2 (P16728) protein level (timepoint 24, LL): 0.005245 | UL24 (P16760) protein level (timepoint 24, LL): 0.1137 | UL40 (P16780) protein level (timepoint 24, LL): 0.6403 | UL47 (P16784) protein level (timepoint 24, LL): 0.008892 | UL69 (P16749) protein level (timepoint 24, LL): 0.2203 | UL70 (P17149) protein level (timepoint 24, LL): 0.1882 | UL83 (P06725) protein level (timepoint 24, LL): 0.04505 | UL132 (P69338) protein level (timepoint 24, LL): 0.1044 | US15 (P09718) protein level (timepoint 24, LL): 1.318 | CVC2 (P16726) protein level (timepoint 48, DE): 0.02711 | DBP (P17147) protein level (timepoint 48, DE): 0.3215 | HELI (P16736) protein level (timepoint 48, DE): 0.633 | IR01 (P09710) protein level (timepoint 48, DE): 0.3157 | NEC2 (P16791) protein level (timepoint 48, DE): 0.07071 | RIR1 (P16782) protein level (timepoint 48, DE): 0.1157 | TRM1 (P16724) protein level (timepoint 48, DE): 0.1031 | UL4 (P17146) protein level (timepoint 48, DE): 0.07128 | UL26 (P16762) protein level (timepoint 48, DE): 0.08021 | UL32 (P08318) protein level (timepoint 48, DE): 0.02022 | UL34 (P16812) protein level (timepoint 48, DE): 0.07906 | UL35 (P16766) protein level (timepoint 48, DE): 0.007792 | UL38 (P16779) protein level (timepoint 48, DE): 0.8139 | UL44 (P16790) protein level (timepoint 48, DE): 0.08914 | UL48 (P16785) protein level (timepoint 48, DE): 0.03443 | UL54 (P08546) protein level (timepoint 48, DE): 0.7178 | UL71 (P16823) protein level (timepoint 48, DE): 0.3459 | UL78 (P16751) protein level (timepoint 48, DE): 0.7134 | UL84 (P16727) protein level (timepoint 48, DE): 0.07575 | UL95 (P16801) protein level (timepoint 48, DE): 0.1437 | UL96 (P16787) protein level (timepoint 48, DE): 0.2583 | UL97 (P16788) protein level (timepoint 48, DE): 0.1726 | UL98 (P16789) protein level (timepoint 48, DE): 0.3796
